Reference: the supplement of paper PMC10307832

What was measured:
Experiment in all cases: relative viability (nuclei count vs DMSO), 5 days (fraction); higher = more cells survive
VX-11e + Crizotinib = compound: CC1=CN=C(N=C1C2=CNC(=C2)C(=O)N[C@H](CO)C3=CC(=CC=C3)Cl)NC4=C(C=C(C=C4)F)Cl [VX-11e] + C[C@@H](Oc1cc(-c2cnn(C3CCNCC3)c2)cnc1N)c1c(Cl)ccc(F)c1Cl [Crizotinib] (partner 1 µM)
Procedure, shortened: (§1)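 For relative viability, nuclei counts in treated wells were divided by those in vehicle wells. Lung cancer cell lines had been pin-tool dosed in 1536-well plates the day after seeding and cultured for 5 days, then fixed and stained in one step (final 0.05% Triton X-100, 1% formaldehyde, 1 ug/ml Hoechst) and imaged at 4×. Doses were one drug alone or a fixed anchor-drug dose plus five library-drug doses (not always all listed) in √10 steps, and values are duplicate-plate medians.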

VX-11e + Vorinostat = compound: CC1=CN=C(N=C1C2=CNC(=C2)C(=O)N[C@H](CO)C3=CC(=CC=C3)Cl)NC4=C(C=C(C=C4)F)Cl [VX-11e] + O=C(CCCCCCC(=O)Nc1ccccc1)NO [Vorinostat] (partner 1 µM)
Procedure, shortened: as §1

VX-11e + Navitoclax = compound: CC1=CN=C(N=C1C2=CNC(=C2)C(=O)N[C@H](CO)C3=CC(=CC=C3)Cl)NC4=C(C=C(C=C4)F)Cl [VX-11e] + CC1(C)CCC(c2ccc(Cl)cc2)=C(CN2CCN(c3ccc(C(=O)NS(=O)(=O)c4ccc(N[C@H](CCN5CCOCC5)CSc5ccccc5)c(S(=O)(=O)C(F)(F)F)c4)cc3)CC2)C1 [Navitoclax] (partner 0.5 µM)
Procedure, shortened: as §1

VX-11e + Dasatinib = compound: CC1=CN=C(N=C1C2=CNC(=C2)C(=O)N[C@H](CO)C3=CC(=CC=C3)Cl)NC4=C(C=C(C=C4)F)Cl [VX-11e] + Cc1nc(Nc2ncc(C(=O)Nc3c(C)cccc3Cl)s2)cc(N2CCN(CCO)CC2)n1 [Dasatinib] (partner 0.075 µM)
Procedure, shortened: as §1

Cell Line	relative viability (VX-11e + Crizotinib; first compound 0.04 µM)	relative viability (VX-11e + Crizotinib; first compound 0.4 µM)	relative viability (VX-11e + Crizotinib; first compound 1.265 µM)	relative viability (VX-11e + Crizotinib; first compound 4 µM)	relative viability (VX-11e + Vorinostat; first compound 0.04 µM)	relative viability (VX-11e + Vorinostat; first compound 0.1265 µM)	relative viability (VX-11e + Vorinostat; first compound 0.4 µM)	relative viability (VX-11e + Vorinostat; first compound 1.265 µM)	relative viability (VX-11e + Vorinostat; first compound 4 µM)	relative viability (VX-11e + Navitoclax; first compound 0.04 µM)	relative viability (VX-11e + Navitoclax; first compound 0.4 µM)	relative viability (VX-11e + Navitoclax; first compound 1.265 µM)	relative viability (VX-11e + Navitoclax; first compound 4 µM)	relative viability (VX-11e + Dasatinib; first compound 0.04 µM)	relative viability (VX-11e + Dasatinib; first compound 0.1265 µM)	relative viability (VX-11e + Dasatinib; first compound 0.4 µM)	relative viability (VX-11e + Dasatinib; first compound 1.265 µM)	relative viability (VX-11e + Dasatinib; first compound 4 µM)	relative viability (VX-11e + Crizotinib; first compound 0.1265 µM)	relative viability (VX-11e + Navitoclax; first compound 0.1265 µM)
ChaGo-K-1	1.19	1.23	1.01	1.12	0.754	0.699	0.717	0.656	0.636	0.616	1.07	0.781	0.787	0.516	0.587	0.584	0.654	0.557	–	–
NCI-H2023	0.633	0.519	0.427	0.338	0.709	0.604	0.289	0.318	0.209	1.02	0.966	1	0.405	0.647	0.508	0.502	0.439	0.234	0.606	0.879
SK-LU-1	0.987	0.789	0.735	0.407	0.827	0.771	0.766	0.545	0.298	1.06	0.508	0.634	0.168	0.202	0.184	–	0.147	0.108	0.761	0.817
SK-MES-1	1.09	1.05	0.964	0.643	1.12	1.04	0.902	0.422	0.393	1.21	1.24	1.1	0.408	0.403	0.332	0.393	0.188	0.185	0.966	1.15
LCLC-97TM1	0.396	–	0.324	0.182	0.765	0.718	0.758	–	0.149	0.492	–	0.408	0.157	1	0.728	0.793	0.547	0.301	0.383	0.463
NCI-H596	0.891	1.09	0.939	0.722	0.472	0.635	0.597	0.387	0.354	1.12	0.895	0.951	0.586	0.542	0.516	0.466	0.425	0.419	1.05	0.876
NCI-H2126	–	0.987	1.02	0.901	0.512	0.686	0.352	0.474	0.52	–	0.877	0.785	0.638	0.52	0.635	–	0.597	0.401	1.03	0.861
BEN	0.953	0.941	0.575	0.828	0.572	0.564	0.55	0.525	0.504	0.0581	0.0708	0.061	0.0537	–	0.277	0.399	0.236	0.252	0.723	0.0703
NCI-H1651	0.916	0.826	0.768	0.812	0.526	0.557	0.55	0.517	0.569	1.06	0.968	0.893	0.939	0.43	0.378	0.368	0.328	0.323	0.821	1.1
NCI-H1993	–	–	0.752	0.647	–	0.819	0.505	0.47	0.623	–	–	0.804	0.612	0.442	0.54	0.523	1.46	0.504	0.804	1.03
NCI-H1975	0.972	0.95	0.963	0.407	0.736	0.724	0.664	0.677	0.465	1.03	1.13	1.06	0.612	0.373	0.29	0.195	0.254	0.171	0.962	1.09
NCI-H727	0.722	0.712	0.419	0.243	0.997	1.08	1.28	1.12	0.787	0.395	0.283	0.167	0.115	0.355	0.279	0.337	0.415	0.258	0.847	0.332
LC-2-ad	0.459	0.529	0.395	0.401	0.84	0.695	0.733	0.456	0.376	0.463	0.362	0.372	0.248	0.48	0.402	0.326	0.289	0.324	0.424	0.375
NCI-H2085	0.88	0.746	0.714	0.619	0.826	0.707	0.689	0.449	0.584	1.17	1.1	0.919	0.719	0.296	0.241	0.217	0.188	0.193	0.817	1.02
NCI-H2347	0.677	0.605	0.517	0.406	0.514	0.688	0.5	0.349	0.316	0.932	0.683	0.352	0.213	0.221	0.314	0.126	0.232	0.197	0.831	0.818
NCI-H1650	1.06	0.751	0.912	0.874	0.561	0.549	0.409	0.529	0.458	1.21	1.08	0.856	0.374	0.304	0.385	–	0.312	0.187	0.87	1.07
